Type in all cases: cell-based
In test [1] the test system is DLD-1 human colon carcinoma cells. As to the kind of experiment: MTS cell viability assay, DLD-1 human colon carcinoma cells. As to conditions: DLD-1, 4 h compound incubation, MTS, read-out: IC50 Values, Cancerous Cells, Colon DLD-1. (In general: Formazan colour is commonly taken as a measure of viable cells.)
For test [2], the system named is PACA-2 human pancreatic carcinoma cells. As to the kind of experiment: MTS cell viability assay, PACA-2 human pancreatic carcinoma cells. The note with it: PACA-2, 4 h compound incubation, MTS, read-out: IC50 Values, Cancerous Cells, Pancreas PACA-2.
In test [3] the test system is A549 human lung carcinoma cells. As to the kind of experiment: MTS cell viability assay, A549 human lung carcinoma cells. As to conditions: A549, 4 h compound incubation, MTS, read-out: IC50 Values, Cancerous Cells, Lung A549.
Test [4] has as its system K-562 human leukemia cells. The experiment in a line: MTS cell viability assay, K-562 human leukemia cells. As to conditions: K562, K-562, 4 h compound incubation, MTS, read-out: IC50 Values, Cancerous Cells, Leukemia K-562.
The subject of test [5] is NCM-460 normal colon epithelial cells. As to the kind of experiment: MTS cell viability assay, NCM-460 normal colon epithelial cells. As to conditions: for IC50: Homo sapiens, NCM460, NCM-460, 4 h compound incubation, MTS, read-out: IC50 Values, Normal Cells, Colon NCM-460; for Fold Selectivity (NCM-460/DLD1): ratio of IC50 NCM-460 / DLD1.
The subject of test [6] is DU-145 human prostate carcinoma cells. The experiment in a line: MTS cell viability assay, DU-145 human prostate carcinoma cells. As to conditions: DU-145, 4 h compound incubation, MTS, read-out: IC50 Values, Cancerous Cells, Prostate DU-145.

Each structure is given as a SMILES string.

In general, IC50 refers to the point on the concentration scale where inhibition reaches its midpoint. For `O=C(O)CCC(=O)N1CCC2(CC1)CSC1=C(O2)c2ccccc2C(=O)C1=O` [Compound 233, 4-(5,6-dioxo-5,6-dihydro-1′H-spiro[naphtho[1,2-b][1,4]oxathiine-2,4′-piperidin]-1′-yl)-4-oxobutanoic acid], the IC50 in test [1] is 64.3 µM; in test [2], 56.3 µM; in test [3] it was above 100 µM; in test [4], 62.8 µM; in test [5] it was 48.8 µM; in test [6] it was 40.4 µM. The “Fold Selectivity (NCM-460/DLD1)” value in test [5] was determined as 0.8.

In the case of `CN(C)c1ccc(NC(=O)N2CCC3(CC2)CSC2=C(O3)c3ccccc3C(=O)C2=O)cc1` [Compound 88, N-[4-(dimethylamino)phenyl]-5,6-dioxo-5,6-dihydro-1′H-spiro[naphtho[1,2-b][1,4]oxathiine-2,4′-piperidine]-1′-carboxamide], the concentration for half-maximal inhibition (IC50) was 1.49 µM in test [1]; 1.85 µM in test [2]; 13.3 µM in test [3]; 2.14 µM in test [4]; 6.08 µM in test [5]; 4.33 µM in test [6]. The “Fold Selectivity (NCM-460/DLD1)” value in test [5] was 4.1.

With `COc1cccc(CN2CCC3(CC2)CSC2=C(O3)c3ccccc3C(=O)C2=O)c1` [Compound 121, 1′-(3-methoxybenzyl)spiro[naphtho[1,2-b][1,4]oxathiine-2,4′-piperidine]5,6-dione], the IC50 was determined as 3.98 µM in test [1]; 3.71 µM in test [2]; 9.42 µM in test [3]; 4.03 µM in test [4]; 11 µM in test [5]; 5.48 µM in test [6]. In addition, the “Fold Selectivity (NCM-460/DLD1)” value in test [5] was 2.8.

Take `O=C1C(=O)c2ccccc2C2=C1SCC1(CCN(C(=O)Oc3ccccc3)CC1)O2` [Compound 92, phenyl 5,6-dioxo-5,6-dihydro-1′H-spiro[naphtho[1,2-b][1,4]oxathiine-2,4′-piperidine]-1′-carboxylate]: the IC50 in test [1] worked out at 4.01 µM; in test [2] it was 4.29 µM; in test [3] it was 31 µM; in test [4], 4.54 µM; in test [5], 13.1 µM; in test [6], 9.11 µM. The “Fold Selectivity (NCM-460/DLD1)” value in test [5] was found to be 3.3.

For `O=C1C(=O)c2ccccc2C2=C1SCC1(CCN(CC(O)CN3CCOCC3)CC1)O2` (centres unmarked) [Compound 166, 1′-(2-hydroxy-3-morpholin-4-ylpropyl)spiro[naphtho[1,2-b][1,4]oxathiine-2,4′-piperidine]-5,6-dione], the IC50 came out at 3.7 µM in test [1]; 1.47 µM in test [2]; 13.6 µM in test [3]; 2.26 µM in test [4]; 8.69 µM in test [5]; 4.16 µM in test [6]. Also, the “Fold Selectivity (NCM-460/DLD1)” value in test [5] turned out to be 2.3.

Consider `Cn1cnc(S(=O)(=O)N2CCC3(CC2)CSC2=C(O3)c3ccccc3C(=O)C2=O)c1` [Compound 79, 1′-[(1-methyl-1H-imidazol-4-yl)sulfonyl]spiro[naphtho[1,2-b][1,4]oxathiine-2,4′-piperidine]-5,6-dione], for which the IC50 was determined as 8.26 µM in test [1]; 7.26 µM in test [2]; 23.5 µM in test [3]; 5.92 µM in test [4]; 20.5 µM in test [5]; 11.9 µM in test [6]. In test [5], the “Fold Selectivity (NCM-460/DLD1)” value was determined as 2.5.

Turning to `CS(=O)(=O)N1CCC2(CC1)CSC1=C(O2)c2ccccc2C(=O)C1=O` [Compound 75, 1′-(methylsulfonyl)spiro[naphtho[1,2-b][1,4]oxathiine-2,4′-piperidine]-5,6-dione], the IC50 in test [1] worked out at 4.45 µM; in test [2], 4.02 µM; in test [3] it was 19.4 µM; in test [4], 2.93 µM; in test [5] it was 9.56 µM; in test [6] it was 7.82 µM. The “Fold Selectivity (NCM-460/DLD1)” value in test [5] was found to be 2.1.

Regarding `Cc1nn(-c2ccccc2)nc1C(=O)N1CCC2(CC1)CSC1=C(O2)c2ccccc2C(=O)C1=O` [Compound 58, 1′-[(5-methyl-2-phenyl-2H-1,2,3-triazol-4-yl)carbonyl]spiro[naphtho[1,2-b][1,4]oxathiine-2,4′-piperidine]-5,6-dione], the IC50 in test [1] was 13.7 µM; in test [2] it was 11 µM; in test [3] it was 42.2 µM; in test [4], 14.2 µM; in test [5], 79.9 µM; in test [6], 12.2 µM. The “Fold Selectivity (NCM-460/DLD1)” value in test [5] is 5.8.

Take `Cc1ccccc1OCC(O)CN1CCC2(CC1)CSC1=C(O2)c2ccccc2C(=O)C1=O` (centres unmarked) [Compound 173, 1′-[2-hydroxy-3-(2-methylphenoxy)propyl]spiro[naphtho[1,2-b][1,4]oxathiine-2,4′-piperidine]-5,6-dione]: the IC50 in test [1] turned out to be 1.49 µM; in test [2] it was 1.42 µM; in test [3], 7 µM; in test [4] it was 4.1 µM; in test [5], 10.3 µM; in test [6], 2.92 µM. In addition, in test [5], the “Fold Selectivity (NCM-460/DLD1)” value was 6.9.

Take `CCCCCCCCCCN1CCC2(CC1)CSC1=C(O2)c2ccccc2C(=O)C1=O` [Compound 128, 1′-decylspiro[naphtho[1,2-b][1,4]oxathiine-2,4′-piperidine]-5,6-dione]: the IC50 in test [1] was determined as 16.9 µM; in test [2], 9.22 µM; in test [3], 42.8 µM; in test [4], 21 µM; in test [5], 40.8 µM; in test [6], 7.41 µM. Moreover, in test [5], the “Fold Selectivity (NCM-460/DLD1)” value is reported as 2.4.

`O=C1C(=O)c2ccccc2C2=C1SCC1(CCN(C(=O)Nc3ccccc3)CC1)O2` [Compound 84, 5,6-dioxo-N-phenyl-5,6-dihydro-1′H-spiro[naphtho[1,2-b][1,4]oxathiine-2,4′-piperidine]-1′-carboxamide]: the IC50 in test [1] worked out at 4.69 µM; in test [2], 6.38 µM; in test [3], 16.9 µM; in test [4], 6.83 µM; in test [5], 19.1 µM; in test [6], 10.3 µM. Further, in test [5], the “Fold Selectivity (NCM-460/DLD1)” value was determined as 4.1.

With `CC(C)COC(=O)N1CCC2(CC1)CSC1=C(O2)c2ccccc2C(=O)C1=O` [Compound 93, isobutyl 5,6-dioxo-5,6-dihydro-1′H-spiro[naphtho[1,2-b][1,4]oxathiine-2,4′-piperidine]-1′-carboxylate], the IC50 turned out to be 1.68 µM in test [1]; 3.55 µM in test [2]; 4.87 µM in test [3]; 2.46 µM in test [4]; 10.8 µM in test [5]; 4.25 µM in test [6]. Besides, in test [5], the “Fold Selectivity (NCM-460/DLD1)” value stood at 6.4.

Take `O=C1C(=O)c2ccccc2C2=C1SCC1(CCN(S(=O)(=O)c3cccc(Cl)c3)CC1)O2` [Compound 82, 1′-[(3-chlorophenyl)sulfonyl]spiro[naphtho[1,2-b][1,4]oxathiine-2,4′-piperidine]-5,6-dione]: the IC50 in test [1] is 8.88 µM; in test [2], 4.59 µM; in test [3], 15.3 µM; in test [4] it was 10 µM; in test [5], 21.1 µM; in test [6], 7.88 µM. For the same compound, in test [5], the “Fold Selectivity (NCM-460/DLD1)” value came out at 2.4.

Turning to `Cc1cc(C(=O)N2CCC3(CC2)CSC2=C(O3)c3ccccc3C(=O)C2=O)n(C)n1` [Compound 42, 1′-[(1,3-dimethyl-1H-pyrazol-5-yl)carbonyl]spiro[naphtho[1,2-b][1,4]oxathiine-2,4′-piperidine]-5,6-dione], the IC50 in test [1] is 8.95 µM; in test [2], 5.12 µM; in test [3], 43 µM; in test [4], 5.64 µM; in test [5] it was 12.6 µM; in test [6], 12.7 µM. Also, in test [5], the “Fold Selectivity (NCM-460/DLD1)” value was determined as 1.4.

Take `CCCCC(CC)COC(=O)N1CCC2(CC1)CSC1=C(O2)c2ccccc2C(=O)C1=O` (centres unmarked) [Compound 95, 2-ethylhexyl 5,6-dioxo-5,6-dihydro-1′H-spiro[naphtho[1,2-b][1,4]oxathiine-2,4′-piperidine]-1′-carboxylate]: the 50% inhibitory concentration (IC50) in test [1] stood at 10.9 µM; in test [2], 4.72 µM; in test [3] it was 51.4 µM; in test [4] it was 12.3 µM; in test [5], 37.7 µM; in test [6], 5.13 µM. For the same compound, in test [5], the “Fold Selectivity (NCM-460/DLD1)” value was 3.5.

Consider `COc1ccc(OCC(O)CN2CCC3(CC2)CSC2=C(O3)c3ccccc3C(=O)C2=O)cc1` (centres unmarked) [Compound 175, 1′-[2-hydroxy-3-(4-methoxyphenoxy)propyl]spiro[naphtho[1,2-b][1,4]oxathiine-2,4′-piperidine]-5,6-dione], for which the concentration for half-maximal inhibition (IC50) in test [1] stood at 1.42 µM; in test [2], 1.39 µM; in test [3] it was 7.29 µM; in test [4], 3.27 µM; in test [5], 6.12 µM; in test [6] it was 1.59 µM. The “Fold Selectivity (NCM-460/DLD1)” value in test [5] is 4.3.

For `O=C1C(=O)c2ccccc2C2=C1SCC1(CCN(C(=O)c3ccoc3)CC1)O2` [Compound 43, 1′-(3-furoyl)spiro[naphtho[1,2-b][1,4]oxathiine-2,4′-piperidine]-5,6-dione], the IC50 in test [1] came out at 2.26 µM; in test [2], 2.14 µM; in test [3], 9.96 µM; in test [4], 2.77 µM; in test [5], 9.44 µM; in test [6] it was 4.12 µM. The “Fold Selectivity (NCM-460/DLD1)” value in test [5] stood at 4.2.
